# According to patent publication US20250090576A1, “METHODS FOR TREATING NONTUBERCULOUS MYCOBACTERIA DISEASES” (Microbion Corporation, priority 2022, published 2025):
# How the values were obtained:
# [1] = test system: M. abscessus cystic fibrosis patient strain 00703 in THP-1 macrophages; assay: Mycobacterial survival (CFU) in infected THP-1 macrophages; type: cell-based; conditions: CF patient strain 00703; after 3 days; drugs at MIC
# Protocol: (§1) THP-1 macrophages were differentiated with 50 ng/ml PMA for 24 hours, followed by 24 hours in media prior to infection. Differentiated THP-1 macrophages were either infected with M. avium strains or M. abscessus strains for 1 hour with an multiplicity of infection (MOI) of 5 or uninfected. Cells were washed twice, followed by 1 hour of antibiotic treatment with 200 μg/ml of amikacin to remove extracellular bacteria. After the antibiotic step, cells were washed once more and BisEDT (BIZ) or amikacin was added once to selected wells (see in vitro doses below).
# (§2) The treatments included: vehicle, amikacin, Soluble BisEDT (S Biz), Insoluble BisEDT (I Biz), and amikacin+BisEDT. The time points for sample preparation were 72 h for M. abscessus strains and 4- and 7-days post infection for M. avium strains. At the indicated timepoints cell media was removed and replaced with 400 ul of 0.1% triton x-100 in H2O for lysis. Wells were pipetted 25 times to disrupt cells then diluted and plated for CFU enumeration.
# [2] = test system: M. abscessus strain 19977 in THP-1 macrophages; assay: as above; type: cell-based; conditions: after 3 days, drugs at MIC
# Protocol: as §1, §2
# [3] = test system: M. abscessus cystic fibrosis patient strain 01715 in THP-1 macrophages; assay: as above; type: cell-based; conditions: CF patient strain 01715; after 3 days; drugs at MIC
# Protocol: as §1, §2
# [4] = test system: M. abscessus from lung homogenates; assay: Resistance plating of treated mouse lung homogenates on agar with 1 μg/ml BisEDT; type: cell-based; conditions: mice treated with BisEDT for 28 days
# Protocol: Lung homogenates from the M. abscessus […] infection were thawed from frozen at 37° C. for 2 hours. To reduce the effect of the Dey-Engley deactivation buffer, mouse homogenates were diluted 1:10 in water before replating samples onto 7H10 agar plates containing 1 μg/ml BisEDT (MIC level). Once plated samples were incubated at 37° C. over 3 days and plate colonies were counted to determine CFUs of resistance.
# Colony forming units were compared from the initial plating with no BisEDT in the agar plates; to replating on agar plates containing 1 μg/mL BisEDT.
# [5] = test system: M. abscessus isolates from murine lung homogenates; assay: MIC analysis of select bacterial isolates from murine lung homogenates; type: cell-based; conditions: isolates from treated mouse lungs
# [6] = test system: CF patient strain 00133 in THP-1 macrophages; assay: Mycobacterial survival (CFU) in infected THP-1 macrophages; type: cell-based, M. avium; conditions: amikacin-resistant CF patient strain 00133; each of the BisEDT formulations; 4 and 7 days
# Protocol: as §1, §2
# [7] = test system: M. abscessus in THP-1 macrophages; assay: TEM of infected THP-1 macrophages (mechanism of action); type: cell-based; conditions: 4 μg/ml insoluble BisEDT; 24 h and 48 h
# Protocol: (§3) THP-1 macrophages were differentiated with 50 ng/ml PMA for 24 hours, followed by 24 hours in media prior to infection. Differentiated THP-1 macrophages were infected with M. avium or M. abscessus for 1 hour with a multiplicity of infection (MOI) of 10. Infected cells were washed twice, followed by 1 hour of antibiotic treatment with 200 μg/ml of amikacin to remove extracellular bacteria. After the antibiotic step, cells were washed once more and 4 μg/ml insoluble BisEDT (BIZ) was added to selected wells. The treatments included: (1) untreated, (2) untreated+infected with MAH 104, (3) untreated+infected with M. abscessus, (4) BIZ treated, (5) BIZ treated+infected with MAH 104, and (6) BIZ treated+infected with M. abscessus. The time points for sample preparation were 24 h and 48 h.p.i. Cells were not washed prior to transmission electron microscopy TEM sample preparation, to preserve any extracellular bacteria that may have been present. Cells were detached by treatment with 5 mM EDTA for […], quenched with 1×HBSS, and suspended in fixative buffer with 2.5% glutaraldehyde, 1% formaldehyde, and 0.1 M sodium cacodylate for 24 hours prior to submission to the electron microscopy facility for processing. Samples were sectioned, dehydrated, and visualized by a FEIT Titan 80-200 TEM/STEM microscope.
# [8] = test system: M. avium (MAH 104) in THP-1 macrophages; assay: as above; type: cell-based; conditions: 4 μg/ml insoluble BisEDT; 24 h and 48 h
# Protocol: as §3
# [9] = Earlier 28-day tolerability work on rats; conditions: 28 days, doses as high as
# [10] = test system: M. abscessus strain 19977; assay: Chronic M. abscessus lung infection in SCID/Beige mice, inhalation treatment 28 days; type: in vivo; conditions: for CFU count in lung homogenates, effect in words: inhaled
# Protocol: A total of sixty female SCID/Beige mice between 6-8 weeks of age were used. Mice were placed up to 4 animals per cage and allowed 1 week of acclimation prior to infection.
# Inoculums of M. abscessus strain 19977 (MAB) used in this study were made from highly virulent frozen stocks with low passage numbers. Bacteria were allowed to grow to log phase after 4 days on 7H10 media agar plates at 37° C. Once confluent, inoculums were made by suspending bacteria at 10^9 in Hank's balanced salt solution (HBSS) as determined by optical density (O.D.) and further quantified by serial dilution to determine the CFU/mL of suspension. At this higher concentration of bacteria, only 20 μL of inoculum was necessary to deposit […] bacteria per mouse.
# On the day of infection mice were anesthetized with isoflurane by the drop jar method. Mice were scruffed in a standard one-handed grip and the nose of the mouse is held of a tube containing gauze containing a small amount of isoflurane. Mice were monitored for breathing and once rapid breaths have slowed down initially the mouse is removed from direct anesthesia and 20 μL of bacterial suspension was deposited on the left nostril. The mice then slowly breath in the droplet. Each mouse was then held in hand until complete consciousness was obtained and then the mouse was replaced into its home cage. After infection was initiated, 3 weeks were allowed to pass in order to allow the bacteria to establish a chronic lung pathology for eventual treatment.
# After establishing each infection, 12 mice were euthanized the day before treatment began to determine the baseline bacterial load. Mice were euthanized using CO2 in accordance with the recommendations of the Guide for the Care and Use of Laboratory Animals (NRC 2011). Lungs and spleens were collected and homogenized then serial diluted for CFU enumeration.
# A nose-only inhalation exposure chamber from CH technologies was used for this experiment. Mice were split into four treatment groups, Vehicle (buffer containing no BisEDT), amikacin (100 μg/kg/day), BisEDT “low” (200 μg/kg/day), and BisEDT “high” (1000 μg/kg/day). Each treatment group consisted of 12 mice. Ten of these mice were used for CFU determination and two mice are used for histology/pathology/lung pharmacokinetics. Treatment was conducted 6 days a week over the course of 28 days total. To create the correct level of deposited dose of each drug tested, 10 mL of test article were made. Amikacin in HBSS at 20 mg/mL was made and stored at 4° C. until needed. […]
# After 28 days of treatment with BisEDT, animals were euthanized by Co2 and secondary cardiac puncture to collect whole blood for quantitation of BisEDT concentration. […] CFUs were determined after serial dilution. […]
# [11] = test system: M. abscessus strains in THP-1 macrophages; assay: Infected THP-1 macrophages, summary over strains; type: cell-based; conditions: 3 days post-treatment
# Protocol: as §1, §2
# [12] = test system: three clinical isolates of M. avium in macrophages; assay: Infected THP-1 macrophages, summary over strains; type: cell-based; conditions: three clinical isolates of M. avium incl. amikacin-resistant isolate
# Protocol: as §1, §2
structure (smiles),measurement,setting,value
"C1C[S][Bi]([S]CC[S][Bi]2[S]CC[S]2)[S]1 [BisEDT, bismuth-1,2-ethanedithiol]","mycobacterial survival (CFU, bacterial load) in THP-1 macrophages, in words",[1],greatly reduced bacterial load in macrophages
same,"mycobacterial survival (CFU, bacterial load) in THP-1 macrophages, in words",[2],reduced bacterial loads in THP-1 cells
same,"mycobacterial survival (CFU, bacterial load) in THP-1 macrophages, in words",[3],greatly reduced bacterial load in macrophages
same,"development of resistance, in words",[4],little development of resistance
same,"MIC of select isolates, in words",[5],did not show a change in resistance
same,"mycobacterial survival (CFU) in THP-1 macrophages, in words",[6],bacteriostatic effect
same,TEM observation on mycobacteria cell wall,[7],"loss of the integrity of the polar region initially, and the whole cell wall in a more advanced stage"
same,TEM observation on mycobacteria cell wall,[8],"loss of the integrity of the polar region initially, and the whole cell wall in a more advanced stage"
same,"dose with high tolerability, without adverse effects",[9],59 µg/kg/day
same,"lung CFU response, in words",[10]; 200 and 1000 μg/kg/day inhaled,dose-dependent response
same,tolerability in infected mice,"[10]; 200 and 1000 μg/kg/day inhaled, mice responsive, normal weight range",well tolerated
same,"CFU count in lung homogenates, effect in words","[10]; BisEDT high, 1000 μg/kg",bactericidal
same,"CFU count in lung homogenates, effect in words","[10]; BisEDT low, 200 μg/kg",bacteriostatic effect
same,"effect in infected macrophages, in words",[11],bactericidal by itself
same,"effect in infected macrophages, in words",[12],bactericidal
